Assay results published in PubChem BioAssay (NCI).
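Tested at 5 concentrations; 48 h exposure; 96-well plates; endpoints linearly interpolated, else capped at highest concentration. At the TGI there is no net growth.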

Assays:
Experiment in all cases: NCI anticancer screen, dose series, 48 h
NCI-H460 lung = test system: NCI-H460 lung
UACC-62 melanoma = test system: UACC-62 melanoma
OVCAR-4 ovarian = test system: OVCAR-4 ovarian
NCI/ADR-RES ovarian = test system: NCI/ADR-RES ovarian
SK-MEL-2 melanoma = test system: SK-MEL-2 melanoma
BT-549 breast = test system: BT-549 breast
HCT-15 colon = test system: HCT-15 colon
SF-268 CNS = test system: SF-268 CNS
COLO 205 colon = test system: COLO 205 colon
HCC-2998 colon = test system: HCC-2998 colon
MOLT-4 leukemia = test system: MOLT-4 leukemia
OVCAR-8 ovarian = test system: OVCAR-8 ovarian
NCI-H226 lung = test system: NCI-H226 lung
786-0 renal = test system: 786-0 renal

| SMILES | TGI (NCI-H460 lung) [µM] | TGI (UACC-62 melanoma) [µM] | TGI (OVCAR-4 ovarian) [µM] | TGI (NCI/ADR-RES ovarian) [µM] | TGI (SK-MEL-2 melanoma) [µM] | TGI (BT-549 breast) [µM] | TGI (HCT-15 colon) [µM] | TGI (SF-268 CNS) [µM] | TGI (COLO 205 colon) [µM] | TGI (HCC-2998 colon) [µM] | TGI (MOLT-4 leukemia) [µM] | TGI (OVCAR-8 ovarian) [µM] | TGI (NCI-H226 lung) [µM] | TGI (786-0 renal) [µM] |
| --- | --- | --- | --- | --- | --- | --- | --- | --- | --- | --- | --- | --- | --- | --- |
| Nc1cccc(C#Cc2cccc(C#Cc3cccc(N)n3)n2)n1 | > 100 | > 100 | > 100 | > 100 | > 100 | > 100 | > 100 | > 100 | > 100 | > 100 | > 100 | > 100 | > 100 | > 100 |
| O=C(NCC(C(=O)OCc1ccccc1)C(=O)OCc1ccccc1)OCc1ccccc1 | > 100 | > 100 |  | > 100 | > 100 | > 100 | > 100 | > 100 | > 100 | > 100 | > 100 | > 100 | > 100 | > 100 |
| Clc1ccc(-c2nc3ccc(C45CC6CC(CC(C6)C4)C5)cc3[nH]2)cc1 | > 90.5 | > 100 | > 100 | > 100 | > 100 | 98.3 | > 72.8 | > 100 | 24.3 | > 77.7 | > 100 | > 100 | > 100 | > 100 |
| C/C1=C\CC/C(C)=C/C=C(/C(C)C)CC/C(C(=O)O)=C/CC1 | > 100 | > 100 | > 100 | > 100 | 62.2 | > 100 | > 100 | > 100 | 43.2 | > 100 | > 100 | > 100 | > 100 | > 100 |
| CC(C)(C)N(Cc1ccoc1)C(=O)/C=C\S(=O)c1ccccc1 (stereo unspecified) |  | 39.3 | > 100 | 56.2 | 39.6 | 30.3 | 51.4 | > 100 | 43.9 | 34.3 | > 100 | 32.1 | 48.6 | 67 |
| Clc1ccccc1-c1nnc2c(-c3ccccc3)nc3ccccc3n12 | > 100 | > 100 | > 100 | > 100 | > 100 | > 100 | > 100 | > 100 | > 100 | > 100 | > 100 |  | > 100 | > 100 |
| CCCCCCCCCC1CC(=O)NCC(=O)NC(C(C)C)C(=O)NC(CC(C)C)C(=O)NC(C)C(=O)NC(C(C)C)C(=O)O1 (stereo unspecified) | 23.6 | 83.7 | 25.4 | > 100 | > 65.8 | > 100 | > 100 | 16.1 | > 100 | > 96.2 | > 52.4 | 18.2 | > 69.1 | 35 |
| CN(C)c1ccc(N=Nc2cccc3ncccc23)cc1 | > 100 | > 100 | > 100 | > 100 | > 100 | > 100 | > 100 | > 100 | > 100 | > 100 | > 100 | > 100 | > 100 | > 100 |
| C1=NCCNCCN=Cc2ccccc2OCc2cccc(n2)COc2ccccc21 | > 100 | > 64.3 | 99.7 | 21.1 | 99.8 | 44.4 | 24.8 | > 96 | > 100 | > 55.5 | > 82 | 37.5 | > 75.7 | > 39.1 |
| O=C(OC(/C=C/c1ccccc1)P1(=O)N(Cc2ccccc2)[C@@H]2CCCC[C@H]2N1Cc1ccccc1)c1ccccc1 (stereo partly specified) | > 27.3 | > 100 | > 100 | > 100 | 5.67 | > 55.8 | > 100 | > 100 | 4.75 | > 100 | 6.47 | > 29.8 | > 100 | > 100 |
| CN1CCN(CCCCN2c3ccccc3Sc3ccc(N=[N+]=[N-])cc32)CC1 | 17.4 | 4.1 | 23.6 | 30 | 12.9 | 26.9 | 23 | 28.2 | 3.51 | 18.3 | 7.24 | 29.8 | 31.7 | 22.6 |
| O=C(CN1CCOCC1)Nc1ccc2c(c1)C1Oc3ccccc3CC1CO2 (stereo unspecified) |  | > 100 |  | > 100 | > 100 | > 100 | > 100 | > 100 | > 100 | > 100 | > 100 | > 100 | > 100 | > 100 |
| Cc1ccc(S(=O)(=O)NC2=NS(=O)(=O)c3cc(C)c(Cl)cc3S2)cc1 | > 100 | > 100 | > 100 | > 100 | > 100 | > 100 | > 100 | > 100 | > 100 | > 100 | > 100 | > 100 | > 100 | > 100 |
| CCSC(=O)/C=C1\CN(C(=O)OC(C)(C)C)C1C(=O)OC(C)(C)C (stereo unspecified) | 23.2 | 10.6 | 7.44 | > 23.7 | 18.4 | 22.4 | 3.93 | 21.6 | 5.48 | 17.2 | 4.18 | 7.85 | 27.5 | 6.23 |
| COC(=O)CCC(C)C1CCC2C3CCC4CC5CCC4(C)C3(O5)C(Br)C(Br)C12C (stereo unspecified) | > 100 | > 100 | > 100 | > 100 | > 100 | > 100 | > 100 | > 100 | > 100 | > 100 | > 100 | > 100 | > 100 | > 100 |
| COc1ccc([C@H](NC(=O)c2ccccc2)[C@@H](O)C(=O)O[C@H]2C[C@@]3(O)C(OC(=O)c4ccccc4)C4[C@](C)(C(=O)[C@H](OC(C)=O)C(=C2C)C3(C)C)[C@@H](O)C[C@H]2OC[C@@]42OC(C)=O)cc1 (stereo partly specified) | > 10 | > 10 | > 10 | > 10 | > 10 | > 10 | > 8.98 | > 10 | 0.0123 | 0.091 | > 5.11 | > 10 | > 10 | > 10 |

| SMILES | TGI (NCI-H460 lung) [µM] | TGI (UACC-62 melanoma) [µM] | TGI (OVCAR-4 ovarian) [µM] | TGI (NCI/ADR-RES ovarian) [µM] | TGI (SK-MEL-2 melanoma) [µM] | TGI (BT-549 breast) [µM] | TGI (HCT-15 colon) [µM] | TGI (SF-268 CNS) [µM] | TGI (COLO 205 colon) [µM] | TGI (HCC-2998 colon) [µM] | TGI (MOLT-4 leukemia) [µM] | TGI (OVCAR-8 ovarian) [µM] | TGI (NCI-H226 lung) [µM] | TGI (786-0 renal) [µM] |
| --- | --- | --- | --- | --- | --- | --- | --- | --- | --- | --- | --- | --- | --- | --- |
| O=CC1C[C@@H](N2C(=O)O[C@@H](c3ccccc3)[C@H]2c2ccccc2)[C@@H]1COCc1ccccc1 (stereo partly specified) | 41.7 | 39.9 | > 100 | 83.6 | 30.8 | 43.3 | 36.3 | 37.1 | 42 | 34.9 | 84.4 | 55.9 | 42.2 | 31.2 |
| O/N=C1\CCc2cc3c(cc21)CCC3 | > 100 | > 100 | > 100 | > 100 | > 100 | > 100 | > 100 | > 100 | > 100 | > 100 | > 100 | > 100 | > 100 | > 100 |
| CC(C)(C)[Si](C)(C)OCC#C[C@@]1(O)CCCCC1CC(Sc1ccccc1)Sc1ccccc1 (stereo partly specified) | 34.6 | 26.7 | 29.2 | 39 | 31.7 | 36.3 | 34.5 |  | 31.6 | 30.7 | 51 | 35.1 | 34.8 | 26.4 |
| COc1cc(/C=C2\CC3C4CC[C@H]5C[C@@H](O)CC[C@]5(C)C4CC[C@]3(C)C2=O)cc(OC)c1OC (stereo partly specified) | 38.9 | 44.9 | 57.2 | > 100 | 33.7 | > 100 | > 100 | > 100 | 26.1 | 34.9 | 69.5 | > 100 | 86.1 | > 100 |
| CC(C)c1ccc2[nH]c(O)c(C3=Nc4ccccc4C3=O)c2c1 | > 100 | 69.8 | 12.8 | > 100 | 53.8 | 69.6 | > 100 | > 100 | > 100 | > 100 | 61.5 | > 100 | 18.7 | 12.3 |
| COC(=O)/C(=C\c1cn(C(C)=O)c2ccccc12)P(=O)(OC)OC | 31.1 | 31.1 | 30.2 | > 100 |  | 29.6 | 28.1 | 54 | 33.3 | 30.4 | > 100 | 68.9 | > 100 | 46.3 |
| COc1ccc2c(c1)N=C1CSC(c3c(Cl)cccc3[N+](=O)[O-])N1C2 (stereo unspecified) | 62.9 | 48.1 | > 100 | > 100 | > 100 | 62.9 | > 100 | > 100 | > 100 | 47.7 | > 100 | > 100 | 84.6 | > 100 |
| CN(C)/C=C/c1nnnn1-c1ccc(I)cc1 | > 100 | 31.1 | 66 | 63.5 |  | 92 | 54.4 | 51 | > 100 | > 100 | 34.1 | 72.2 | 56.9 | > 100 |
| CC(=O)OC[C@@H](OC(C)=O)[C@@H](OC(C)=O)[C@H]1OC[C@@H]2C[C@H]([C@H]1OC(C)=O)N(Cc1ccccc1)O2 | > 100 | > 100 | > 100 | > 100 | > 100 | > 100 |  | > 100 | > 100 | > 100 | > 100 |  | > 100 | > 100 |
| Cc1ccc(CCCCCOc2ccc(C3=NCCO3)cc2)s1 | > 100 | > 100 | > 100 | > 100 | > 100 | > 100 | > 100 | > 100 | > 100 | > 100 | > 100 | > 100 | > 100 | > 100 |
| COc1cc(C2(O)c3ccccc3C3=NCCN32)cc(OC)c1OC (stereo unspecified) | > 100 | > 100 | > 100 | > 100 | > 100 | > 100 | > 100 | > 100 | > 100 | > 100 | > 100 |  | > 100 | > 100 |
| NS(=O)(=O)c1nnc(/N=C(/CCC(=O)O)C(=O)O)s1 | > 100 | > 100 | > 100 | > 100 | > 100 | > 100 | > 100 |  | > 100 | > 100 | > 100 | > 100 | > 100 | > 100 |
| CCN(CC)CCC(=O)c1ccc(Oc2ccccc2)cc1 |  | 29.3 | 76.9 | 56.4 | > 100 | 33.5 | 35.6 | 55.9 | 32.1 | 35.6 | 48.4 | > 100 | > 100 | 29.3 |
| C/C(=N\NC(=S)NNC(=S)N(C)c1ccccc1)c1ccccn1 | 29.5 |  | > 100 | 55.4 | > 100 | > 100 | > 100 | > 89 | > 100 | > 100 |  | > 100 | 6.85 | > 47.2 |
| COC(=O)C1(C)CCCC2(C)C3CCC4CC3(C=C4CO)CCC12 (stereo unspecified) |  | > 100 | > 100 | 75.5 | > 100 | > 100 | 34.9 | > 100 | > 100 | > 100 | 76.4 | > 100 | > 100 | > 100 |
| COC(=O)c1c(O)ccc2c1c1c(n2-c2ccc(OC)cc2)C(=O)c2ccccc2C1=O | 61.7 |  | 38.2 | 48 | > 100 | 84.9 | > 100 | 32.4 | 3.52 | 11.3 | > 100 | 33.7 | 73.3 | 29.1 |
